The record followed here is EP0031883A1, “Antimicrobial agent containing hydroxy butylimidazole derivatives” (BAYER AG, priority 1979, dated 1981).

This experiment relates to Candida. As to the kind of experiment: Antimicrobial in-vivo activity (oral) in mouse candidosis. Further details: species or system Mäuse. The note with it: SPF-CF1 mice infected i.v. with 1 - 2 x 10^6 Candida cells; 50 - 100 mg/kg oral, one hour before and seven hours after infection; untreated controls about 5 % survival on day 5. The method, then: Mäuze vom Typ SPF-CF1 wurden intravenös mit 1 - 2 x 10^6 logaritmisch wachsenden Candida-Zellen, die in physiologischer Kochsalzlösung suspendiert waren, infiziert. Eine Stunde vor und sieben Stunden nach der Infektion werden die Tiere mit jeweils 50 - 100 mg/kg Körpergewicht der Präparate oral behandelt.
Urbehandelte Tiere starben 3 bis 6 Tage post infektionen. Die Überlebensrate am 5. Tag post infektionen betrug bei unbehandelten Kontrolltieren etwa 5 %.

Take `CC(C)(C)C(O)(Cn1ccnc1)c1ccc(-c2ccc(Cl)cc2)cc1` (centres unmarked) [Verbindung 2, 1-(4-p-Chlorbiphenylyl)-1-(tert.-butyl)-2-(imidazol-1-yl)-ethan-1-ol]: the Wirkung result is given as “sehr gute Wirkung”.
Turning to `Clc1ccc(COC(Cn2ccnc2)c2ccc(Cl)cc2Cl)c(Cl)c1` (stereo not drawn) [Miconazol®, 1-[2,4-Dichlor-β-(2,4-dichlorbenzyloxy)-phenethyl]-imidazolnatrium], the Wirkung result is recorded as “keine Wirkung”.
